Source: PubChem BioAssay AID2060620 (Molecular Pharmacology Branch, DTP, NCI, 2025)

Tested on: 328373-195-R-J1-PDC complex spheroids, viability % test/control
Experiment: Anticancer human tumor 328373-195-R-J1-PDC patient-derived head and neck squamous carcinoma cell line growth inhibition [CLK]
Settings: for IC50: curve of first compound; for viability, T/C: stronger effect = lower value
How it was run: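 Multi-cell-type spheroids combined patient-derived tumor cells with HUVEC endothelial cells and human mesenchymal stem cells. Paired agents were dosed in half-log steps down from about clinical Cmax, or from 10 microM where Cmax was unknown.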

[1] = second compound 0.0316 µM, first compound 0.0316 µM
[2] = second compound 0.0316 µM, first compound 0.1 µM
[3] = second compound 0.1 µM, first compound 0.0316 µM
[4] = second compound 0.1 µM, first compound 0.1 µM
[5] = second compound 0.316 µM, first compound 0.0316 µM
[6] = second compound 0.316 µM, first compound 0.1 µM
[7] = second compound 1 µM, first compound 0.0316 µM
[8] = second compound 1 µM, first compound 0.1 µM
[9] = second compound 3.16 µM, first compound 0.0316 µM
[10] = second compound 3.16 µM, first compound 0.1 µM
[11] = second compound 10 µM, first compound 0.0316 µM
[12] = second compound 10 µM, first compound 0.1 µM
[13] = second compound 0.0316 µM, first compound 0.316 µM
[14] = second compound 0.0316 µM, first compound 1 µM
[15] = second compound 0.0316 µM, first compound 3.16 µM
[16] = second compound 0.0316 µM, first compound 10 µM
[17] = second compound 0.1 µM, first compound 0.316 µM
[18] = second compound 0.1 µM, first compound 1 µM
[19] = second compound 0.1 µM, first compound 3.16 µM
[20] = second compound 0.1 µM, first compound 10 µM
[21] = second compound 0.316 µM, first compound 0.316 µM
[22] = second compound 0.316 µM, first compound 1 µM
[23] = second compound 0.316 µM, first compound 3.16 µM
[24] = second compound 0.316 µM, first compound 10 µM
[25] = second compound 1 µM, first compound 0.316 µM
[26] = second compound 1 µM, first compound 1 µM
[27] = second compound 1 µM, first compound 3.16 µM
[28] = second compound 1 µM, first compound 10 µM
[29] = second compound 3.16 µM, first compound 0.316 µM
[30] = second compound 3.16 µM, first compound 1 µM
[31] = second compound 3.16 µM, first compound 3.16 µM
[32] = second compound 3.16 µM, first compound 10 µM
[33] = second compound 10 µM, first compound 0.316 µM
[34] = second compound 10 µM, first compound 1 µM
[35] = second compound 10 µM, first compound 3.16 µM
[36] = second compound 10 µM, first compound 10 µM
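Also: spheroids exposed to the agents for 7 days.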

SMILES: Cn1ncnc1[C@H]1c2n[nH]c(=O)c3cc(F)cc(c23)N[C@@H]1c1ccc(F)cc1 + CNC(=O)c1ccc(Nc2nc(OC3CCCC3)c3c(-c4ccc5nc(C)oc5c4)c[nH]c3n2)c(OC)c1
- IC50 (second compound 0.0316 µM): 40.6 nM
- IC50 (second compound 0.1 µM): < 0.316 nM
- IC50 (second compound 0.316 µM): < 0.316 nM
- IC50 (second compound 1 µM): < 0.316 nM
- IC50 (second compound 3.16 µM): < 0.316 nM
- IC50 (second compound 10 µM): < 0.316 nM
- viability, T/C (second compound 0.0316 µM, first compound 0.000316 µM): 51.9%
- viability, T/C (second compound 0.0316 µM, first compound 0.001 µM): 51.6%
- viability, T/C (second compound 0.0316 µM, first compound 0.00316 µM): 47.8%
- viability, T/C (second compound 0.0316 µM, first compound 0.01 µM): 66.8%
- viability, T/C [1]: 51.7%
- viability, T/C [2]: 40.6%
- viability, T/C (second compound 0.1 µM, first compound 0.000316 µM): 9.58%
- viability, T/C (second compound 0.1 µM, first compound 0.001 µM): 9.68%
- viability, T/C (second compound 0.1 µM, first compound 0.00316 µM): 9.49%
- viability, T/C (second compound 0.1 µM, first compound 0.01 µM): 11.1%
- viability, T/C [3]: 9.25%
- viability, T/C [4]: 12.2%
- viability, T/C (second compound 0.316 µM, first compound 0.000316 µM): 9.25%
- viability, T/C (second compound 0.316 µM, first compound 0.001 µM): 10.3%
- viability, T/C (second compound 0.316 µM, first compound 0.00316 µM): 8.72%
- viability, T/C (second compound 0.316 µM, first compound 0.01 µM): 10.3%
- viability, T/C [5]: 9.93%
- viability, T/C [6]: 10.4%
- viability, T/C (second compound 1 µM, first compound 0.000316 µM): 9.2%
- viability, T/C (second compound 1 µM, first compound 0.001 µM): 9.13%
- viability, T/C (second compound 1 µM, first compound 0.00316 µM): 9.32%
- viability, T/C (second compound 1 µM, first compound 0.01 µM): 11.8%
- viability, T/C [7]: 9.07%
- viability, T/C [8]: 8.36%
- viability, T/C (second compound 3.16 µM, first compound 0.000316 µM): 9.59%
- viability, T/C (second compound 3.16 µM, first compound 0.001 µM): 9.4%
- viability, T/C (second compound 3.16 µM, first compound 0.00316 µM): 9.78%
- viability, T/C (second compound 3.16 µM, first compound 0.01 µM): 10%
- viability, T/C [9]: 11%
- viability, T/C [10]: 9.49%
- viability, T/C (second compound 10 µM, first compound 0.000316 µM): 11.2%
- viability, T/C (second compound 10 µM, first compound 0.001 µM): 11.1%
- viability, T/C (second compound 10 µM, first compound 0.00316 µM): 8.71%
- viability, T/C (second compound 10 µM, first compound 0.01 µM): 11.8%
- viability, T/C [11]: 12.4%
- viability, T/C [12]: 8.72%

SMILES: Nc1ccn(C2OC(CO)C(O)C2(F)F)c(=O)n1 (stereo unspecified) + CNC(=O)c1ccc(Nc2nc(OC3CCCC3)c3c(-c4ccc5nc(C)oc5c4)c[nH]c3n2)c(OC)c1
- IC50 (second compound 0.0316 µM): < 31.6 nM
- IC50 (second compound 0.1 µM): < 31.6 nM
- IC50 (second compound 0.316 µM): < 31.6 nM
- IC50 (second compound 1 µM): < 31.6 nM
- IC50 (second compound 3.16 µM): < 31.6 nM
- IC50 (second compound 10 µM): < 31.6 nM
- viability, T/C [1]: 2.44%
- viability, T/C [2]: 1.85%
- viability, T/C [13]: 3.64%
- viability, T/C [14]: 2.74%
- viability, T/C [15]: 2.63%
- viability, T/C [16]: 1.95%
- viability, T/C [3]: 3.4%
- viability, T/C [4]: 1.85%
- viability, T/C [17]: 2.02%
- viability, T/C [18]: 2.08%
- viability, T/C [19]: 2.83%
- viability, T/C [20]: 4.18%
- viability, T/C [5]: 3.23%
- viability, T/C [6]: 2.68%
- viability, T/C [21]: 4.06%
- viability, T/C [22]: 2.46%
- viability, T/C [23]: 2.95%
- viability, T/C [24]: 1.84%
- viability, T/C [7]: 4.36%
- viability, T/C [8]: 1.86%
- viability, T/C [25]: 1.79%
- viability, T/C [26]: 2.35%
- viability, T/C [27]: 3.18%
- viability, T/C [28]: 3.19%
- viability, T/C [9]: 5.21%
- viability, T/C [10]: 3.42%
- viability, T/C [29]: 4.01%
- viability, T/C [30]: 2.03%
- viability, T/C [31]: 2.01%
- viability, T/C [32]: 1.88%
- viability, T/C [11]: 6.95%
- viability, T/C [12]: 3.09%
- viability, T/C [33]: 3.18%
- viability, T/C [34]: 2.49%
- viability, T/C [35]: 2.14%
- viability, T/C [36]: 1.82%

SMILES: O=c1[nH]cc(F)c(=O)[nH]1 + CNC(=O)c1ccc(Nc2nc(OC3CCCC3)c3c(-c4ccc5nc(C)oc5c4)c[nH]c3n2)c(OC)c1
- IC50 (second compound 0.0316 µM): < 31.6 nM
- IC50 (second compound 0.1 µM): < 31.6 nM
- IC50 (second compound 0.316 µM): < 31.6 nM
- IC50 (second compound 1 µM): < 31.6 nM
- IC50 (second compound 3.16 µM): < 31.6 nM
- IC50 (second compound 10 µM): < 31.6 nM
- viability, T/C [1]: 37%
- viability, T/C [2]: 18.3%
- viability, T/C [13]: 8.48%
- viability, T/C [14]: 5.66%
- viability, T/C [15]: 6.31%
- viability, T/C [16]: 11.2%
- viability, T/C [3]: 8.64%
- viability, T/C [4]: 5.34%
- viability, T/C [17]: 5%
- viability, T/C [18]: 3.23%
- viability, T/C [19]: 2.62%
- viability, T/C [20]: 7.23%
- viability, T/C [5]: 7.44%
- viability, T/C [6]: 6.09%
- viability, T/C [21]: 4.45%
- viability, T/C [22]: 4.15%
- viability, T/C [23]: 4.13%
- viability, T/C [24]: 6.8%
- viability, T/C [7]: 8.18%
- viability, T/C [8]: 7.54%
- viability, T/C [25]: 3.88%
- viability, T/C [26]: 2.98%
- viability, T/C [27]: 2.83%
- viability, T/C [28]: 4.21%
- viability, T/C [9]: 11%
- viability, T/C [10]: 7.15%
- viability, T/C [29]: 3.65%
- viability, T/C [30]: 2.93%
- viability, T/C [31]: 3.84%
- viability, T/C [32]: 4.43%
- viability, T/C [11]: 12.2%
- viability, T/C [12]: 8.27%
- viability, T/C [33]: 4.41%
- viability, T/C [34]: 3.11%
- viability, T/C [35]: 3.46%
- viability, T/C [36]: 1.56%
